Results reported in ChEMBL document CHEMBL1201862, “PubChem BioAssay data set” (2004).
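Results reflect a 48-hour exposure of cells in 96-well plates to compound at five concentrations. GI50: concentration for 50% inhibition of growth.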 Calls of active or inactive are those of the source. Rule as the data show it: active = GI50 up to about 1.1 µM and inactive = higher.

The compounds below were run on BT-549 (assay: NCI-60 cell line screen, 48 h).
In the case of CCOC(=O)C(NCc1ccc2c(c1)OCO2)(NC(=O)c1ccccc1)C(F)(F)F (configuration not stated), the GI50 is reported as > 100 µM (inactive).
With CNC(=O)OCC1=C(COC(=O)NC)CN(c2ccccc2)C1 the GI50 was > 100 µM (inactive).
COc1cc(O)c2c(c1)C(O)C(O)CC1OC1C(=O)/C=C/CC(C)OC2=O (configuration not stated) was tested, and the GI50 was 0.979 µM (active).
In the case of Cc1c2oc3c(C)cnc(C(=O)NC4C(=O)NC(C(C)C)C(=O)N5CCCC5C(=O)N(C)CC(=O)N(C)C(C(C)C)C(=O)OC4C)c3nc-2c(C(=O)NC2C(=O)NC(C(C)C)C(=O)N3CCCC3C(=O)N(C)CC(=O)N(C)C(C(C)C)C(=O)OC2C)c(N)c1=O (configuration not stated), the GI50 is reported as 7.62 µM (inactive).
In the case of CCOC(=O)c1c(C)n(-c2ccc(C)cc2)c(=O)c2ccccc2c(=O)c2c(=O)ccc(=O)c1=2, the GI50 is reported as 23.3 µM (inactive).
COc1ccc(/C=C2\C[C@H]3[C@@H]4CCC5=C/C(=N/O)CC[C@]5(C)[C@H]4CC[C@]3(C)\C2=N\O)cc1 was tested, and the GI50 was 15.9 µM (inactive).
O=C(c1ccco1)n1c2ccc(Br)cc2c2nc3ccccc3nc21 was tested, and the GI50 was 45.4 µM (inactive).
In the case of O=C1CSC(c2c[nH]c3ccccc23)N1c1ccc(Cl)cc1Cl (configuration not stated), the GI50 is reported as > 100 µM (inactive).
With COc1cc(/C=C2\C(=O)N(c3cccc(NC(C)=O)c3)C(c3ccccc3)S2(=O)=O)cc(OC)c1OC (configuration not stated) the GI50 was 67.3 µM (inactive).
For Cc1cccc2c1C(=O)[C@](C)([C@]1(C)Nc3cccc(C)c3C1=O)N2, the GI50 was 20.8 µM (inactive).
In the case of CCOC(=O)c1c(N)sc2c1C(C(=O)OCC)CCC2 (configuration not stated), the GI50 is reported as > 100 µM (inactive).
In the case of CN(C)CCOc1ccc2[nH]c(C(=O)N3CC(CCl)c4c3cc(NC(=O)OCc3ccc([N+](=O)[O-])cc3)c3ccccc43)cc2c1 (configuration not stated), the GI50 is reported as 1.85 µM (inactive).
For O=C(c1cccs1)N(C(=O)N1CCN(c2ccccc2)CC1)S(=O)(=O)c1ccccc1, the GI50 was 28.2 µM (inactive).
CC1CCc2sc3nc(S)n(C)c(=O)c3c2C1 (configuration not stated) was tested, and the GI50 was 96.8 µM (inactive).
With CC(C)(C)OC(=O)NCCC1SC2C=CC1C2 (configuration not stated) the GI50 was > 100 µM (inactive).
In the case of COc1ccc2c(-c3ccc(OCCN(C)C)cc3)c(Oc3ccc(Cl)cc3)c(=O)oc2c1, the GI50 is reported as 14.7 µM (inactive).
For C/C=C1/CN2CCC34c5ccccc5N(C)C23C2CC1C4(C(=O)OC)C(OC(C)=O)O2 (configuration not stated), the GI50 was > 100 µM (inactive).
With Cc1ccc(Nc2c(C#N)[n+]([O-])c3cc(Cl)ccc3[n+]2[O-])cc1 the GI50 was 9.46 µM (inactive).
For COC(=O)/C=C\C(C#N)(C#N)/N=C/c1cccs1, the GI50 was 7.89 µM (inactive).
In the case of COC(=O)C1=C(\c2ccccc2)c2ccccc2C(=O)N(C2CCCCC2)/C=C\1, the GI50 is reported as 23.1 µM (inactive).
For FC(F)(F)c1ccc(Cc2nc3cc4ccccc4cc3[nH]2)cc1, the GI50 was > 100 µM (inactive).
C#CCOC(=O)C(N)CC(N)=O (configuration not stated) was tested, and the GI50 was > 100 µM (inactive).
For O=C1Cc2cn[nH]c2-c2ccccc2N1, the GI50 was 22.5 µM (inactive).
For C=CC(Br)(CBr)CCC1OC1(C)C (configuration not stated), the GI50 was 16.6 µM (inactive).
With O=[N+]([O-])c1ccccc1S(=O)(=O)c1cc(O)cc2c1NCCC2 the GI50 was 13.2 µM (inactive).
With CC(C)=CCC/C(C)=C/CC/C(C)=C/[C@@H]1[C@@H](CO)[C@]1(C)CC/C=C(\C)CCC=C(C)C the GI50 was > 100 µM (inactive).
For CC12c3c4cc(Br)cc3Oc3cc(Br)cc(c31)Oc1cc(Br)cc(c12)O4, the GI50 was 21.9 µM (inactive).
For COc1cc2c3c(c1O)-c1c(ccc(OC)c1OC)CC3N(C)CC2 (configuration not stated), the GI50 was > 100 µM (inactive).
CCCC#CCOC(=O)c1cc([N+](=O)[O-])cc([N+](=O)[O-])c1 was tested, and the GI50 was > 100 µM (inactive).
COc1ccc(Cc2c(N)[nH]c(=O)[nH]c2=O)cc1 was tested, and the GI50 was > 100 µM (inactive).
With CCNC(=S)N/N=C(/C)c1cccc(/C(C)=N\NC(=S)NCC)n1 the GI50 was 10.4 µM (inactive).
With O=C(O)C(O)c1ccc(F)cc1 (configuration not stated) the GI50 was > 100 µM (inactive).
With CC(=O)Nc1ccc2c3c(cc(O)c2c1)N(C(=O)CCCCC(=O)Nc1ccc2c4c(cc(O)c2c1)N(C(=O)OC(C)(C)C)CC4CCl)CC3CCl (configuration not stated) the GI50 was 1.77 µM (inactive).
With COC(Cc1ccccc1)NC(C)=O (configuration not stated) the GI50 was > 100 µM (inactive).
For OCC(O)COCn1cc(Cn2ncc3c(NCc4ccccc4)ncnc32)nn1 (configuration not stated), the GI50 was > 100 µM (inactive).
With C[C@H](CCC(=O)O)[C@H]1CC[C@H]2[C@@H]3[C@@H](O)C[C@@H]4C[C@H](O)CC[C@]4(C)[C@H]3CC[C@]12C the GI50 was 38.8 µM (inactive).
In the case of COc1ccc(/C=C2\CCCc3ccccc3C2=O)cc1, the GI50 is reported as 0.143 µM (active).
